# Source: PubChem BioAssay (NCI)
#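 Protocol summary: plate cells (96-well), add compound at 5 concentrations, incubate 48 h, interpolate endpoints linearly. TGI marks complete inhibition of growth.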
# What was measured:
# Assay in all cases: NCI-60 cell line screen, 48 h
# CCRF-CEM leukemia = system: CCRF-CEM leukemia
# NCI-H226 lung = system: NCI-H226 lung
# SN12C renal = system: SN12C renal
# MCF7 breast = system: MCF7 breast
# SNB-19 CNS = system: SNB-19 CNS
# HCC-2998 colon = system: HCC-2998 colon
# ACHN renal = system: ACHN renal
# HCT-15 colon = system: HCT-15 colon
# OVCAR-8 ovarian = system: OVCAR-8 ovarian
# HOP-92 NSCLC = system: HOP-92 NSCLC
# MOLT-4 leukemia = system: MOLT-4 leukemia
# TK-10 renal = system: TK-10 renal
# RPMI-8226 leukemia = system: RPMI-8226 leukemia
# COLO 205 colon = system: COLO 205 colon
# T-47D breast = system: T-47D breast
# SNB-75 CNS = system: SNB-75 CNS
# PC-3 prostate = system: PC-3 prostate
# EKVX NSCLC = system: EKVX NSCLC
# MDA-MB-435 = system: MDA-MB-435
# SF-539 CNS = system: SF-539 CNS
# UACC-257 melanoma = system: UACC-257 melanoma
# SW-620 colon = system: SW-620 colon
# HL-60(TB) leukemia = system: HL-60(TB) leukemia
# BT-549 breast = system: BT-549 breast
# SK-MEL-5 melanoma = system: SK-MEL-5 melanoma
# A549 NSCLC = system: A549 NSCLC
# OVCAR-4 ovarian = system: OVCAR-4 ovarian
# K-562 leukemia = system: K-562 leukemia
# 786-0 renal = system: 786-0 renal
# OVCAR-3 ovarian = system: OVCAR-3 ovarian
# A498 renal = system: A498 renal
# HS 578T breast = system: HS 578T breast
# SR leukemia = system: SR leukemia
# LOX IMVI melanoma = system: LOX IMVI melanoma
# IGROV1 ovarian = system: IGROV1 ovarian
# DU-145 prostate = system: DU-145 prostate
# M14 melanoma = system: M14 melanoma
# SF-295 CNS = system: SF-295 CNS
# NCI-H522 lung = system: NCI-H522 lung
# SK-OV-3 ovarian = system: SK-OV-3 ovarian
# OVCAR-5 ovarian = system: OVCAR-5 ovarian
# MALME-3M melanoma = system: MALME-3M melanoma
# MDA-N = system: MDA-N
# KM12 colon = system: KM12 colon
# U251 CNS = system: U251 CNS
# NCI-H23 lung = system: NCI-H23 lung
# UO-31 renal = system: UO-31 renal
# SK-MEL-28 melanoma = system: SK-MEL-28 melanoma
# NCI-H460 lung = system: NCI-H460 lung
# HOP-62 NSCLC = system: HOP-62 NSCLC
# UACC-62 melanoma = system: UACC-62 melanoma
# HT29 colon = system: HT29 colon
# HCT-116 colon = system: HCT-116 colon
# RXF 393 renal = system: RXF 393 renal
# NCI/ADR-RES ovarian = system: NCI/ADR-RES ovarian
# MDA-MB-231 breast = system: MDA-MB-231 breast
# SF-268 CNS = system: SF-268 CNS
# DLD-1 colon = system: DLD-1 colon
# LXFL 529 NSCLC = system: LXFL 529 NSCLC
# KM20L2 colon = system: KM20L2 colon
# M19-MEL melanoma = system: M19-MEL melanoma
# SNB-78 CNS = system: SNB-78 CNS
# CAKI-1 renal = system: CAKI-1 renal
# DMS 273 small cell lung = system: DMS 273 small cell lung
# SK-MEL-2 melanoma = system: SK-MEL-2 melanoma
# HOP-18 NSCLC = system: HOP-18 NSCLC
structure (smiles),measurement,setting,value
O=C(Nn1c(-c2ccccc2)nc2ccccc2c1=O)c1ccccc1O,TGI,CCRF-CEM leukemia,> 100 µM
same,TGI,NCI-H226 lung,> 100 µM
same,TGI,SN12C renal,> 100 µM
same,TGI,MCF7 breast,> 100 µM
same,TGI,SNB-19 CNS,> 100 µM
same,TGI,HCC-2998 colon,> 100 µM
same,TGI,ACHN renal,> 100 µM
same,TGI,HCT-15 colon,> 100 µM
same,TGI,OVCAR-8 ovarian,> 100 µM
same,TGI,HOP-92 NSCLC,> 100 µM
same,TGI,MOLT-4 leukemia,> 100 µM
same,TGI,TK-10 renal,> 100 µM
same,TGI,RPMI-8226 leukemia,> 100 µM
same,TGI,COLO 205 colon,> 100 µM
same,TGI,T-47D breast,> 100 µM
same,TGI,SNB-75 CNS,> 100 µM
same,TGI,PC-3 prostate,> 100 µM
same,TGI,EKVX NSCLC,> 100 µM
same,TGI,MDA-MB-435,> 100 µM
same,TGI,SF-539 CNS,> 100 µM
same,TGI,UACC-257 melanoma,> 100 µM
same,TGI,SW-620 colon,> 100 µM
same,TGI,HL-60(TB) leukemia,> 100 µM
same,TGI,BT-549 breast,> 100 µM
same,TGI,SK-MEL-5 melanoma,84.3 µM
same,TGI,A549 NSCLC,> 100 µM
same,TGI,OVCAR-4 ovarian,> 100 µM
same,TGI,K-562 leukemia,> 100 µM
same,TGI,786-0 renal,> 100 µM
same,TGI,OVCAR-3 ovarian,> 100 µM
same,TGI,A498 renal,> 100 µM
same,TGI,HS 578T breast,> 100 µM
same,TGI,SR leukemia,> 100 µM
same,TGI,LOX IMVI melanoma,> 100 µM
same,TGI,IGROV1 ovarian,> 100 µM
same,TGI,DU-145 prostate,> 100 µM
same,TGI,M14 melanoma,> 100 µM
same,TGI,SF-295 CNS,> 100 µM
same,TGI,NCI-H522 lung,> 100 µM
same,TGI,SK-OV-3 ovarian,> 100 µM
same,TGI,OVCAR-5 ovarian,> 100 µM
same,TGI,MALME-3M melanoma,> 100 µM
same,TGI,MDA-N,> 100 µM
same,TGI,KM12 colon,> 100 µM
same,TGI,U251 CNS,> 100 µM
same,TGI,NCI-H23 lung,> 100 µM
same,TGI,UO-31 renal,> 100 µM
same,TGI,SK-MEL-28 melanoma,> 100 µM
same,TGI,NCI-H460 lung,> 100 µM
same,TGI,HOP-62 NSCLC,> 100 µM
same,TGI,UACC-62 melanoma,77.2 µM
same,TGI,HT29 colon,> 100 µM
same,TGI,HCT-116 colon,> 100 µM
same,TGI,RXF 393 renal,> 100 µM
same,TGI,NCI/ADR-RES ovarian,> 100 µM
same,TGI,MDA-MB-231 breast,> 100 µM
same,TGI,SF-268 CNS,> 100 µM
NNC(=O)C(=O)N/N=C1\CCC(=O)CC1C(=O)CCC(=O)Nc1ccc(Cl)cc1 (centres undefined),TGI,DLD-1 colon,> 100 µM
same,TGI,CCRF-CEM leukemia,> 100 µM
same,TGI,NCI-H226 lung,> 100 µM
same,TGI,SN12C renal,> 100 µM
same,TGI,SNB-19 CNS,> 100 µM
same,TGI,HCC-2998 colon,> 100 µM
same,TGI,ACHN renal,> 100 µM
same,TGI,HCT-15 colon,> 100 µM
same,TGI,OVCAR-8 ovarian,> 100 µM
same,TGI,MOLT-4 leukemia,> 100 µM
same,TGI,TK-10 renal,> 100 µM
same,TGI,RPMI-8226 leukemia,> 100 µM
same,TGI,COLO 205 colon,> 100 µM
same,TGI,SNB-75 CNS,> 100 µM
same,TGI,EKVX NSCLC,> 100 µM
same,TGI,SF-539 CNS,> 100 µM
same,TGI,UACC-257 melanoma,> 100 µM
same,TGI,SW-620 colon,> 100 µM
same,TGI,LXFL 529 NSCLC,> 100 µM
same,TGI,HL-60(TB) leukemia,> 100 µM
same,TGI,SK-MEL-5 melanoma,> 100 µM
same,TGI,KM20L2 colon,> 100 µM
same,TGI,A549 NSCLC,> 100 µM
same,TGI,OVCAR-4 ovarian,> 100 µM
same,TGI,K-562 leukemia,> 100 µM
same,TGI,786-0 renal,> 100 µM
same,TGI,OVCAR-3 ovarian,> 100 µM
same,TGI,A498 renal,> 100 µM
same,TGI,M19-MEL melanoma,> 100 µM
same,TGI,LOX IMVI melanoma,> 100 µM
same,TGI,IGROV1 ovarian,> 100 µM
same,TGI,SNB-78 CNS,> 100 µM
same,TGI,M14 melanoma,> 100 µM
same,TGI,SF-295 CNS,> 100 µM
same,TGI,SK-OV-3 ovarian,> 100 µM
same,TGI,OVCAR-5 ovarian,> 100 µM
same,TGI,MALME-3M melanoma,> 100 µM
same,TGI,CAKI-1 renal,> 100 µM
same,TGI,KM12 colon,> 100 µM
same,TGI,U251 CNS,> 100 µM
same,TGI,NCI-H23 lung,> 100 µM
same,TGI,UO-31 renal,> 100 µM
same,TGI,SK-MEL-28 melanoma,> 100 µM
same,TGI,DMS 273 small cell lung,> 100 µM
same,TGI,NCI-H460 lung,> 100 µM
same,TGI,SK-MEL-2 melanoma,> 100 µM
same,TGI,UACC-62 melanoma,> 100 µM
same,TGI,HT29 colon,> 100 µM
same,TGI,HOP-18 NSCLC,> 100 µM
same,TGI,HCT-116 colon,> 100 µM
same,TGI,RXF 393 renal,> 100 µM
same,TGI,SF-268 CNS,> 100 µM
